Patent EP1289507B1, “USE OF AN ALDOSTERONE ANTAGONIST FOR THE TREATMENT OR PROPHYLAXIS OF ALDOSTERONE-MEDIATED PATHOGENIC EFFECTS” (priority 2000, dated 2001)
Like-named read-outs stand apart in the source and are kept apart here.

Columns and labels:
[1] = test system: captopril-treated, saline-drinking SHRSP; assay: Protocol 2: Angiotensin II-induced renal damage in captopril-treated saline-drinking SHRSP; format: in vivo, male SHRSP/A3N
Protocol: Animals. Studies were conducted in accordance with institutional guidelines using male SHRSP/A3N (generations F-75 to F-78), n = 37, from our local colony. These animals were bred from NIH stock, derived from the SHRSP/A3N substrain described originally by Okamoto and coworkers (Okamoto K et al. Circ. Res. 34 and 35 (suppl I):I-143-I-153.). All animals were housed in a room maintained on a 12:12-h light:dark-cycle and an ambient temperature of 22 ± 1°C in the Animal Care Facility at New York Medical College. Rats were weaned at 4 weeks of age and allowed free access to Purina Lab Chow 5001 (Ralston Purina, St. Louis, MO) and tap water until the initiation of experimental protocols.
SHRSP were placed on Stroke-Prone Rodent Diet (#39-288, Zeigler Bros Inc., Gardners, PA) and 1% NaCl drinking solution ad libitum starting at 8.3 weeks of age. […] Animals were handled and weighed daily. Urine samples were collected for the assessment of proteinuria. Systolic blood pressure and heart rate were measured each week. After 2 weeks of treatment, animals were decapitated, trunk blood was collected into chilled EDTA tubes, and the kidneys were removed, blotted dry, and immediately weighed. Coronal sections of kidney were fixed and later processed for light microscopic evaluation.
Assays and Analyses. Systolic blood pressure and heart rate of awake animals were measured by tail-cuff plethysmography using a Natsume KN-210 manometer and tachometer (Peninsula Laboratories Inc., Belmont, CA). Rats were warmed at 37°C for 10 min and allowed to rest quietly in a Lucite chamber before measurement of blood pressure. Measurements of urine volume were made gravimetrically. Urinary protein concentration was determined by the sulfosalicylic acid turbidity method. Plasma aldosterone was measured by radioimmunoassay using ^125I-aldosterone as a tracer (Coat-a Count Aldosterone, Diagnostic Products Co., Los Angeles, CA).
Histology. Kidneys were preserved in 10% phosphate-buffered formalin. Coronal sections (2-3 µm) were stained with hematoxylin and eosin and examined by light microscopy in a blinded fashion as previously described (Stier CT et al. J Pharmacol Exp Ther (1992) 260:1410-1415). Glomerular damage was categorized as ischemic or thrombotic. Ischemic lesions were defined as retraction of glomerular capillary tufts with or without appreciable mesangiolysis. Glomerular thrombotic lesions were defined as any one of a combination of the following: segmental to global fibrinoid necrosis, focal thrombosis of glomerular capillaries, swelling and proliferation of intracapillary (endothelial and mesangial) and/or extracapillary cells (crescents), and expansion of reticulated mesangial matrix with or without significant hypercellularity. […] Vascular thrombotic lesions were defined as any one or a combination of the following: mural fibrinoid necrosis, extravasation and fragmentation of red blood cells, and luminal and/or mural thrombosis. Proliferative arteriopathy was characterized by proliferation of markedly swollen myointimal cells with swollen round to ovoid vesicular nuclei surrounded by mucinous extracellular matrix ("onion skinning") often resulting in nodular thickening. Vascular damage was expressed as the number of arteries and arterioles with lesions per 100 glomeruli. The presence of casts and tubular (ischemic) retraction and simplification was assessed semiquantitatively.
Statistical Analysis. Significant effects with respect to treatment and time were determined by two-way analysis of variance. Data with only one grouping variable were analyzed statistically by Student's unpaired t tests. When more than two groups were compared, one-way analysis of variance was performed followed by the post-hoc Newman-Keul's multiple comparison test. Data were analyzed using version 2.01 of the GraphPad Prism statistical software package (GraphPad Software Inc., San Diego, CA). P < .05 was considered statistically significant. Data are reported as mean ± SEM.

[2] = Physical stability of solid state forms; format: physicochemical; details: at temperatures below the enantiotropic transition temperature
[3] = test system: patients with hypertension; assay: Clinical efficacy in hypertension: randomized double-blind study, cuff and ambulatory blood pressure; format: in vivo; details: 100 mg/day (50 BID)
Protocol: A multicenter, randomized, double-blind, parallel group study was conducted in patients with hypertension. […] The study consisted of a two-week pretreatment period for completion of screening procedures and discontinuation of any current antihypertensive medication(s). The screening period was followed by a four-week single-blind placebo lead-in treatment period.
The primary efficacy measure was the change from baseline in cuff diastolic blood pressure measured at trough as compared to placebo. Secondary efficacy measures included changes in cuff assessed trough systolic blood pressure and changes in average 24-hour diastolic and systolic blood pressure assessed by ambulatory blood pressure monitoring. Safety was assessed by conducting routine clinical lab tests, physical exams, ECGs, and monitoring for adverse events.

[4] = test system: Volume Expanded Hypertensive Rats; details: averaged for 24 hours after three weeks
[5] = test system: patients with severe heart failure; details: added to ACE inhibitor plus loop diuretic; cited from earlier work
[6] = test system: patients with severe heart failure; details: NYHA Functional Class IV, enalapril plus diuretics compared to placebo plus diuretics; cited from earlier work

SMILES: C[C@H](CS)C(=O)N1CCC[C@H]1C(=O)O [Captopril, captopril, reference compound]
- Glomerular damage, Ischemic ([1]; Captopril 50 mg/kg/d + vehicle, or CAP, Angiotensin II 25 ng/min + Eplerenone 100 mg/kg/d, 2 weeks): 0 ± 0 lesions/100 glomeruli
- Glomerular damage, Thrombotic ([1]; as Table A-8B, 2 weeks): 0±0 lesions/100 glomeruli
- Glomerular damage, Total ([1]; as Table A-8B, 2 weeks): 0±0 lesions/100 glomeruli
- Renal arteriopathy, Proliferative ([1]; as Table A-8B, 2 weeks): 0±0 lesions/100 glomeruli
- Renal arteriopathy, Thrombotic ([1]; as Table A-8B, 2 weeks): 0±0 lesions/100 glomeruli
- Renal arteriopathy, Total ([1]; as Table A-8B, 2 weeks): 0±0 lesions/100 glomeruli
- tubules with ischemic retraction and simplification ([1]; captopril plus vehicle, or captopril plus angiotensin II plus eplerenone): absent

SMILES: COC(=O)[C@@H]1CC2=CC(=O)CC[C@]2(C)[C@@]23O[C@@H]2C[C@@]2(C)[C@@H](CC[C@@]24CCC(=O)O4)[C@H]13 [Form L]
- physical stability relative to Form H [2]: greater physical stability

SMILES: CC(=O)S[C@@H]1CC2=CC(=O)CC[C@]2(C)[C@H]2CC[C@@]3(C)[C@@H](CC[C@@]34CCC(=O)O4)[C@H]12 [Spironolactone, spironolactone, reference compound]
- ABPM DBP, adjusted mean change from baseline to final visit [3]: -8.7 mm Hg
- ABPM SBP, adjusted mean change from baseline to final visit [3]: -15.8 mm Hg
- Cuff DBP, adjusted mean change from baseline to final visit [3]: -9.5 mm Hg
- Cuff SBP, adjusted mean change from baseline to final visit [3]: -16.7 mm Hg
- SAP ([4]; 100 mg/kg s.c.): 171 ± 5 mmHg
- SAP ([4]; 200 mg/kg s.c.): 170 ± 9 mmHg
- morbidity and mortality [5]: reduced morbidity and mortality

SMILES: CCOC(=O)[C@H](CCc1ccccc1)N[C@@H](C)C(=O)N1CCC[C@H]1C(=O)O [enalapril]
- reduction of mortality at one year [6]: 31%
